Several values for one entry are separate records, joined by “and”; a condition that tells them apart may be missing. Identical values can stand only once.
Conditions: Liquid, Pulse-echo method

c1ccccc1 [benzene]
Conditions	speed of sound
283.15 K, 101 kPa	1371.6 m/s
283.15 K, 1112 kPa	1376.8 m/s
283.15 K, 2281 kPa	1382.4 m/s
283.15 K, 4616 kPa	1393.2 m/s
283.15 K, 6766 kPa	1403.3 m/s
283.15 K, 9100 kPa	1413.6 m/s
283.15 K, 11628 kPa	1424.5 m/s
283.15 K, 14278 kPa	1436 m/s
283.15 K, 15957 kPa	1443.4 m/s
283.15 K, 18556 kPa	1454 m/s
283.15 K, 20823 kPa	1463 m/s
283.15 K, 23405 kPa	1473.4 m/s
298.15 K, 101 kPa	1299.9 m/s and 1300.2 m/s
298.15 K, 888 kPa	1305 m/s
298.15 K, 1246 kPa	1305.8 m/s
298.15 K, 2254 kPa	1311.8 m/s
298.15 K, 2506 kPa	1312.2 m/s
298.15 K, 4580 kPa	1322.5 m/s
298.15 K, 4719 kPa	1323.9 m/s
298.15 K, 6991 kPa	1334.4 m/s
298.15 K, 7131 kPa	1335.5 m/s
298.15 K, 9327 kPa	1346.2 m/s
298.15 K, 9335 kPa	1346.2 m/s
298.15 K, 9408 kPa	1346 m/s
298.15 K, 11563 kPa	1355.8 m/s
298.15 K, 11640 kPa	1357 m/s
298.15 K, 14137 kPa	1368.5 m/s
298.15 K, 14317 kPa	1368.6 m/s
298.15 K, 15927 kPa	1375.9 m/s
298.15 K, 16524 kPa	1379.1 m/s
298.15 K, 18655 kPa	1388.6 m/s
298.15 K, 18844 kPa	1389 m/s
298.15 K, 20826 kPa	1398.1 m/s
298.15 K, 21001 kPa	1398.6 m/s
298.15 K, 23151 kPa	1407.9 m/s
298.15 K, 23834 kPa	1410.7 m/s
298.15 K, 25699 kPa	1418.5 m/s
298.15 K, 26172 kPa	1420.5 m/s
298.15 K, 28369 kPa	1428.5 m/s
313.15 K, 101 kPa	1230.8 m/s
313.15 K, 2047 kPa	1241.3 m/s
313.15 K, 3268 kPa	1247.8 m/s
313.15 K, 5111 kPa	1257.8 m/s
313.15 K, 7199 kPa	1268.7 m/s
313.15 K, 9383 kPa	1280 m/s
313.15 K, 11613 kPa	1291.3 m/s
313.15 K, 14139 kPa	1303.7 m/s
313.15 K, 16386 kPa	1314.6 m/s
313.15 K, 18686 kPa	1325.5 m/s
313.15 K, 21242 kPa	1337.2 m/s
313.15 K, 23254 kPa	1346.4 m/s
313.15 K, 24384 kPa	1351.3 m/s
313.15 K, 25607 kPa	1357.2 m/s
313.15 K, 25608 kPa	1357.3 m/s
313.15 K, 28210 kPa	1368.6 m/s
333.15 K, 101 kPa	1142.4 m/s
333.15 K, 1260 kPa	1148 m/s
333.15 K, 2426 kPa	1155 m/s
333.15 K, 5026 kPa	1170.5 m/s
333.15 K, 7135 kPa	1182.9 m/s
333.15 K, 9195 kPa	1194.5 m/s
333.15 K, 11729 kPa	1208.4 m/s
333.15 K, 14011 kPa	1220.6 m/s
333.15 K, 16310 kPa	1232.7 m/s
333.15 K, 18687 kPa	1244.8 m/s
333.15 K, 20059 kPa	1251.8 m/s
333.15 K, 21112 kPa	1257.2 m/s
333.15 K, 23196 kPa	1267.4 m/s
333.15 K, 25517 kPa	1278.7 m/s
333.15 K, 28165 kPa	1287.7 m/s

ClC(Cl)(Cl)Cl [tetrachloromethane]
Conditions	speed of sound [m/s]
283.15 K, 101 kPa	969.1
283.15 K, 497 kPa	970.5
283.15 K, 1065 kPa	972.7
283.15 K, 2192 kPa	976.9
283.15 K, 2306 kPa	977.4
283.15 K, 3433 kPa	981.6
283.15 K, 5102 kPa	987.7
283.15 K, 5958 kPa	990.8
283.15 K, 7972 kPa	998
283.15 K, 8771 kPa	1000.6
283.15 K, 9833 kPa	1004.6
283.15 K, 11260 kPa	1009.5
283.15 K, 12970 kPa	1015.5
283.15 K, 13650 kPa	1017.6
283.15 K, 16043 kPa	1026
283.15 K, 19058 kPa	1035.9
283.15 K, 22343 kPa	1046.6
283.15 K, 25816 kPa	1057.5
283.15 K, 30453 kPa	1071.7
298.15 K, 101 kPa	921.1
298.15 K, 583 kPa	923.1
298.15 K, 865 kPa	924.2
298.15 K, 887 kPa	924.4
298.15 K, 1384 kPa	926.4
298.15 K, 1731 kPa	927.8
298.15 K, 1900 kPa	928.4
298.15 K, 2056 kPa	929.1
298.15 K, 2905 kPa	932.5
298.15 K, 3020 kPa	933
298.15 K, 3919 kPa	936.6
298.15 K, 4367 kPa	938.4
298.15 K, 4908 kPa	940.5
298.15 K, 5436 kPa	942.6
298.15 K, 5946 kPa	944.5
298.15 K, 6868 kPa	948
298.15 K, 7358 kPa	949.9
298.15 K, 7761 kPa	951.5
298.15 K, 8818 kPa	955.5
298.15 K, 8930 kPa	955.9
298.15 K, 9903 kPa	959.6
298.15 K, 10321 kPa	961.2
298.15 K, 11239 kPa	964.6
298.15 K, 12541 kPa	969.3
298.15 K, 13397 kPa	972.5
298.15 K, 14945 kPa	978
298.15 K, 15313 kPa	979.4
298.15 K, 17404 kPa	986.8
298.15 K, 17674 kPa	987.8
298.15 K, 20253 kPa	996.7
298.15 K, 20404 kPa	997.2
298.15 K, 22533 kPa	1004.5
298.15 K, 24855 kPa	1012.3
298.15 K, 24984 kPa	1012.8
298.15 K, 25186 kPa	1013.4
298.15 K, 27693 kPa	1021.7
298.15 K, 29953 kPa	1029
298.15 K, 30569 kPa	1030.8
313.15 K, 101 kPa	874.2
313.15 K, 108 kPa	874.2
313.15 K, 478 kPa	875.9
313.15 K, 894 kPa	877.7
313.15 K, 1827 kPa	881.9
313.15 K, 2938 kPa	886.7
313.15 K, 4119 kPa	891.6
313.15 K, 5135 kPa	896.1
313.15 K, 5591 kPa	898
313.15 K, 6975 kPa	903.6
313.15 K, 8334 kPa	909.4
313.15 K, 10049 kPa	916.2
313.15 K, 12992 kPa	927.9
313.15 K, 14421 kPa	933.4
313.15 K, 16421 kPa	941.1
313.15 K, 18812 kPa	949.9
313.15 K, 20514 kPa	956.3
313.15 K, 25209 kPa	972.9
313.15 K, 31645 kPa	994.8
333.15 K, 101 kPa	813
333.15 K, 967 kPa	817.4
333.15 K, 1691 kPa	820.9
333.15 K, 2195 kPa	823.4
333.15 K, 3177 kPa	828.1
333.15 K, 5118 kPa	837.4
333.15 K, 5595 kPa	839.5
333.15 K, 7312 kPa	847.3
333.15 K, 8236 kPa	851.5
333.15 K, 9201 kPa	855.8
333.15 K, 10593 kPa	862
333.15 K, 11851 kPa	867.4
333.15 K, 13131 kPa	872.9
333.15 K, 14740 kPa	879.6
333.15 K, 15989 kPa	884.8
333.15 K, 17758 kPa	892.1
333.15 K, 19476 kPa	898.9
333.15 K, 20905 kPa	904.6
333.15 K, 22422 kPa	910.5
333.15 K, 25433 kPa	922
333.15 K, 27880 kPa	931.1
333.15 K, 31372 kPa	943.7
